Test [1] has as its system RAW264.7 cell line. Briefly: Intracellular NAD by enzymatic assay in RAW264.7 cells. The class given is cell-based, mouse. The settings on record: RAW264.7 cultured overnight with FK866 plus the added substance, LPS 2 h. As for the experimental part: (§1) (A) The mouse macrophage cell line RAW264.7 was cultured overnight with increasing doses of FK866, and then stimulated with LPS for 2 h. The culture supernatants were tested for TNF content by ELISA and intracellular NAD levels were measured by an enzymatic assay.
(§2) (B) RAW264.7 cells were cultured overnight in the presence of FK866 and the intracellular pool of NAD was restored by co-incubation of the cells with nicotinic acid (NA). Cells were then stimulated with LPS for 2 h and the culture supernatant was tested for TNF content by ELISA.
(§3) (C) RAW264.7 cells were cultured overnight in the presence of FK866 and NAD levels were maintained by culturing the cells in the presence of extracellular NAD. Cells were then stimulated with LPS for 2 h and the culture supernatant was tested for TNF content by ELISA.
(§4) This example illustrates the correlation between proinflammatory cytokine secretion and NAD levels in the cell. The mouse macrophage cell line RAW264.7 was cultured overnight with increasing doses of FK866, and then stimulated with LPS for 2 h. The culture supernatants were tested for TNF content by ELISA and intracellular NAD levels were measured by an enzymatic assay.
(§5) In another experiment, RAW264.7 cells were cultured overnight in the presence of FK866 and the intracellular pool of NAD was restored by co-incubation of the cells with nicotinic acid. Nicotinic acid is a precursor of NAD, but its transformation into NAD is not dependent upon NMPRT and is thus not inhibited by FK866. Cells were then stimulated with LPS for 2 h and the culture supernatant was tested for TNF content by ELISA.
(§6) In another experiment, RAW264.7 cells were cultured overnight in the presence of FK866 and NAD levels were maintained by culturing the cells in the presence: of extra-cellular NAD. Cells were then stimulated with LPS for 2 h and the culture supernatant was tested for TNF content by ELISA.

The test system of test [2] is RAW264.7 cell line. Briefly: LPS-stimulated TNF secretion by ELISA in RAW264.7 cells. The class given is cell-based, mouse. The settings on record: RAW264.7 cultured overnight with FK866 plus the added substance, LPS 2 h. As for the experimental part:
The murine RAW264.7 cell line was stimulated with LPS in the presence of FK866. TNF protein concentrations were determined by ELISA (above panel) while mRNA levels were determined by RT-PCR (below panel).
as §1, §2, §3
This example illustrates that FK866 inhibits TNFα secretion at a posttranscriptional level. The murine RAW 264.7 cell line was incubated in the presence of graded doses of FK866, stimulated with microbial products, and levels of TNFα released in the supernatant evaluated by ELISA.
as §4, §5, §6

The subject of test [3] is Human monocytic cell line THP-1. Briefly: Intracellular NAD by enzymatic assay in THP-1 cells. The class given is cell-based.
Method: The human THP-1 monocytic cell line was cultured in the presence of medium or FK866 and stimulated by LPS.
For test [4] the test system is unchanged. Put plainly: LPS-stimulated cytokine secretion by ELISA in THP-1 cells. The test is classed as cell-based. On the procedure:
Human monocytic cell line THP-1 was cultured overnight in the presence of graded doses of nicotinic acid (NA), a precursor of NAD, and then stimulated with lipopolysaccharide (LPS) from gram-negative bacteria for 2 h. The cell supernatant was tested for tumor necrosis factor (TNF) content by ELISA and the intracellular pool of NAD was measured by an enzymatic assay.
Human monocytic cell line THP-1, human peripheral blood mononuclear cells (PBMC), human monocyte-derived dendritic cells, or mouse peritoneal macrophages were isolated and cultured overnight with increasing doses of FK866, and then stimulated with LPS for 6 h. The culture supernatants were tested for TNF and IL-6 content by ELISA
THP-1 cells were incubated in the presence of 10 nM FK866 and graded doses of NMN. Cells were further stimulated with LPS and intracellular NAD levels and TNFα secretion were determined using standard assays.
This example illustrates the direct relationship between NAD levels in cells and pro-inflammatory cytokine secretion. Human monocytic cell line THP-1 was cultured overnight in the presence of nicotinic acid, a precursor of NAD, and then stimulated with lipopolysaccharide (LPS) from gram-negative bacteria for 2 h. The cell supernatant was tested for tumor necrosis factor (TNF) content by ELISA and the intracellular pool of NAD was measured by an enzymatic assay.
This example describes the inhibition of pro-inflammatory cytokines production by the competitive small molecular weight compound inhibitor of NMPRT, ((E)-N-[4-(1-benzoylpiperidin-4-yl)butyl]-3-(pyridin-3-yl)acrylamide, designated FK866). Human monocytic cell line THP-1, human peripheral blood mononuclear cells (PBMC), human monocyte-derived dendritic cells, or mouse peritoneal macrophages were isolated and cultured overnight with increasing doses of FK866, and then stimulated with LPS for 6 h. The culture supernatants were tested for TNF and IL-6 content by ELISA.
This example illustrates that NAMPT is the only molecular target of FK866. […]

The subject of test [5] is collagen-induced arthritis. Briefly: Collagen-induced arthritis (CIA) mouse model. The test is classed as in vivo. The settings on record: FK866 10 mg/kg ip twice daily or etanercept 15 mg/kg every three days, over 15 days.
Where [6] appears, read: THP-1, 10 nM FK866 and graded doses of NMN, LPS.

For the compound `NC(=O)c1ccc[n+]([C@@H]2O[C@H](COP(=O)([O-])OP(=O)(O)OC[C@H]3O[C@@H](n4cnc5c(N)ncnc54)[C@H](O)[C@@H]3O)[C@@H](O)[C@H]2O)c1` [NAD, nicotinamide adenyl dinucleotide], the “NAD levels in the presence of FK866” value in the test with RAW264.7 cell line [1] is “remained high”. Also, the “TNF synthesis in the presence of FK866” value in the test on RAW264.7 cell line [2] is “restored”.

For the compound `NC(=O)c1ccc[n+]([C@@H]2O[C@H](COP(=O)([O-])O)[C@@H](O)[C@H]2O)c1` [nicotinamide mononucleotide (NMN), nicotinamide mononucleotide], the “intracellular NAD levels despite exposure to FK866” value in test [3] (setting [6]) was “restored”. The “TNFα production despite exposure to FK866” value in test [4] (setting [6]) is “restored”.

For the compound `O=C(O)c1cccnc1` [nicotinic acid], in test [3] (THP-1 cultured overnight with graded doses of nicotinic acid, LPS 2 h), the “intracellular NAD levels” value is recorded as “increased in parallel in a dose-dependent fashion”. Besides, the “NAD levels in the presence of FK866” value in the test with RAW264.7 cell line [1] was “maintained high levels of NAD”. In the test on RAW264.7 cell line [2], the “TNF synthesis in the presence of FK866” value was “restored”. Moreover, the TNF secretion entry in test [4] (THP-1 cultured overnight with graded doses of nicotinic acid, LPS 2 h, ELISA) was “increased in parallel in a dose-dependent fashion”.

In the case of etanercept, in test [5], the “severity of arthritis in CIA mice” value is “P<0.05 FK866 or etanercept versus placebo”.

Source of the values: patent publication US20090325923A1, “NEW METHOD FOR THE TREATMENT OF INFLAMMATORY DISEASES” (TOPOTARGET SWITZERLAND SA, priority 2006, published 2009).
